Test results reported in ChEMBL document CHEMBL1156891, “Pyrrolidine amides of pyrazolodihydropyrimidines as potent and selective KV1.5 blockers” (Bioorg Med Chem Lett, 2010).

How the values were obtained:
[1] = target: Potassium voltage-gated channel subfamily A member 5 (Homo sapiens, UniProt P22460); assay: Inhibition of human Kv1.5 channel expressed in mouse L929 cells; type: cell-based; settings: for inhibition: concentration not given here
[2] = Clearance in dog at 10 µmol/kg, intra-arterial infusion; settings: in vivo
Oryctolagus cuniculus [3] = assay: Plasma concentration in rabbit at 10 mg/kg, iv; type: ADME, organism-based; parameters: dose 10 mg/kg, route intravenous; settings: in vivo
[4] = Oral bioavailability in dog at 20 µmol/kg, po; settings: in vivo
[5] = Terminal half life in rat at 10 µmol/kg, intra-arterial infusion; settings: in vivo, read-out: beta t1/2 (converted)
Oryctolagus cuniculus [6] = assay: Prolongation of atrial effective refractory period in rabbit at 3 mg/kg, iv relative to vehicle control; type: functional, Cardiac atrium
[7] = Terminal half life in dog at 10 µmol/kg, intra-arterial infusion; settings: in vivo, read-out: beta t1/2 (converted)
Oryctolagus cuniculus [8] = assay: Prolongation of atrial effective refractory period in rabbit at 10 mg/kg, iv relative to vehicle control; type: functional, Cardiac atrium
[9] = Volume of distribution at steady state in rat at 10 µmol/kg, intra-arterial infusion; settings: in vivo, read-out: Vdss
[10] = Fraction unbound in rabbit plasma at 10 mg/kg, iv; type: ADME, organism-based, Oryctolagus cuniculus; parameters: dose 10 mg/kg, route intravenous
Oryctolagus cuniculus [11] = assay: Prolongation of atrial effective refractory period in rabbit at 0.3 mg/kg, iv relative to vehicle control; type: functional, Cardiac atrium
Oryctolagus cuniculus [12] = assay: Prolongation of atrial effective refractory period in rabbit at 1 mg/kg, iv relative to vehicle control; type: functional, Cardiac atrium
[13] = Oral bioavailability in rat at 20 µmol/kg, po; settings: in vivo
[14] = Volume of distribution at steady state in dog at 10 µmol/kg, intra-arterial infusion; settings: in vivo, read-out: Vdss
[15] = Clearance in rat at 10 µmol/kg, intra-arterial infusion; settings: in vivo

Sequence of Potassium voltage-gated channel subfamily A member 5 (P22460 whole entry, the tested form may be a part): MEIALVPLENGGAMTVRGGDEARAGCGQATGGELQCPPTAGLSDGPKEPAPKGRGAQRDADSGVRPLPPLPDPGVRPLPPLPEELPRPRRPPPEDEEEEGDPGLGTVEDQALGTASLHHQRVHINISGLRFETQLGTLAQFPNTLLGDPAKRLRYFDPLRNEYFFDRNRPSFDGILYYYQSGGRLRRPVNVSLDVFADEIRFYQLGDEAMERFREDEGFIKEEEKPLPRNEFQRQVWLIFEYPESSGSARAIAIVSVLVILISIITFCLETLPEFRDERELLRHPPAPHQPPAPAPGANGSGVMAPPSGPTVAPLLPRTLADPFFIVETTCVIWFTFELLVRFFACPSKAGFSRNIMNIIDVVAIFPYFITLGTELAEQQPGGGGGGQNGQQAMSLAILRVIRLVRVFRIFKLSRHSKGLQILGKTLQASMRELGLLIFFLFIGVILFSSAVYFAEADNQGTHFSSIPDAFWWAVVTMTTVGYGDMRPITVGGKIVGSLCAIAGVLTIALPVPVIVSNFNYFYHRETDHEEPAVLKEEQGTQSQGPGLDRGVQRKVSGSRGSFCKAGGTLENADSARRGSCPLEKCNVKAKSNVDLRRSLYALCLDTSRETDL

SMILES: CC1=C(C(=O)N2CCC[C@H]2c2cc(C)on2)C(c2ccc(Cl)c(Cl)c2)n2nccc2N1 (stereo in doubt; 21b)
- IC50 [1]: 90 nM

SMILES: CC1=C(C(=O)N2CCC[C@H]2c2nnc(N)s2)C(c2ccc(Cl)c(Cl)c2)n2nccc2N1 (some centres undefined)
- IC50 [1]: > 1000 nM
- inhibition [1]: 4%

SMILES: CC1=C(C(=O)N2CCC[C@H]2c2ccc(F)cc2)[C@@H](c2ccc(Cl)c(Cl)c2)n2nccc2N1 [BMS-394136]
- clearance [2]: 42 mL/min/kg
- IC50 [1]: 50 nM
- concentration (Oryctolagus cuniculus [3]): 7 µM
- bioavailability [4]: 37%
- half-life [5]: 0.57 h
- Activity (Oryctolagus cuniculus [6]): 1.37%
- half-life [7]: 1.5 h
- Activity (Oryctolagus cuniculus [8]): 6.95%
- Vd [9]: 1.6 L/kg
- fraction unbound [10]: 0.03
- Activity (Oryctolagus cuniculus [11]): 0.13%
- Activity (Oryctolagus cuniculus [12]): 0.37%
- bioavailability [13]: 51%
- Vd [14]: 2.1 L/kg
- clearance [15]: 35 mL/min/kg

SMILES: CC1=C(C(=O)N2CCC[C@H]2c2cc(C)on2)C(c2ccc(Cl)c(Cl)c2)n2nccc2N1 (stereo in doubt; 21a) [listing 1 of 2 here]
- inhibition [1]: 38%

SMILES: CC1=C(C(=O)N2CCCC2c2ccc(F)cc2)C(c2ccc(Cl)c(Cl)c2)n2nccc2N1 (mixture of isomers; 7c)
- IC50 [1]: 150 nM

SMILES: CC1=C(C(=O)N2CCCC2c2ccccc2)C(c2ccc(Cl)c(Cl)c2)n2nccc2N1 (centres undefined)
- IC50 [1]: 150 nM

SMILES: CC1=C(C(=O)N2CCC[C@H]2c2cc(C)no2)C(c2ccc(Cl)c(Cl)c2)n2nccc2N1 (stereo in doubt; 20b)
- IC50 [1]: 110 nM

SMILES: CC1=C(C(=O)N2CCC[C@H]2c2nnn[nH]2)C(c2ccc(Cl)c(Cl)c2)n2nccc2N1 (stereo in doubt; 14b)
- inhibition [1]: 8%

SMILES: CC1=C(C(=O)N2CCC[C@H]2c2nnn[nH]2)C(c2ccc(Cl)c(Cl)c2)n2nccc2N1 (stereo in doubt; 14a) [listing 1 of 2 here]
- inhibition [1]: 4%

SMILES: CC1=C(C(=O)N2CCC[C@H]2c2nnc[nH]2)C(c2ccc(Cl)c(Cl)c2)n2nccc2N1 (stereo in doubt; 17a) [listing 1 of 2 here]
- IC50 [1]: > 1000 nM

SMILES: CC1=C(C(=O)N2CCCC2c2ccccn2)C(c2ccc(Cl)c(Cl)c2)n2nccc2N1 (centres undefined)
- IC50 [1]: 660 nM

SMILES: COC(=O)[C@@H]1CCCN1C(=O)C1=C(C)Nc2ccnn2C1c1ccc(Cl)c(Cl)c1 (some centres undefined)
- IC50 [1]: 150 nM

SMILES: CC1=C(C(=O)N2CCC[C@H]2c2nnn(C)n2)C(c2ccc(Cl)c(Cl)c2)n2nccc2N1 (some centres undefined)
- IC50 [1]: 480 nM

SMILES: CC1=C(C(=O)N2CCC[C@H]2c2nc(C)no2)C(c2ccc(Cl)c(Cl)c2)n2nccc2N1 (stereo in doubt; 13b)
- IC50 [1]: 160 nM

SMILES: CC1=C(C(=O)N2CCC[C@H]2c2nc(C)c(C)s2)C(c2ccc(Cl)c(Cl)c2)n2nccc2N1 (some centres undefined)
- IC50 [1]: 300 nM

SMILES: CC1=C(C(=O)N2CCC[C@H]2c2cc(C)on2)C(c2ccc(Cl)c(Cl)c2)n2nccc2N1 (stereo in doubt; 21a) [listing 2 of 2 here]
- IC50 [1]: > 1000 nM

SMILES: CC1=C(C(=O)N2CCC(c3ccc(F)cc3)C2)C(c2ccc(Cl)c(Cl)c2)n2nccc2N1 (centres undefined)
- IC50 [1]: 160 nM

SMILES: CC1=C(C(=O)N2CCC[C@H]2c2cc(C)no2)C(c2ccc(Cl)c(Cl)c2)n2nccc2N1 (stereo in doubt; 20a) [listing 1 of 2 here]
- inhibition [1]: 21%

SMILES: CC1=C(C(=O)N2CCC[C@H]2c2n[nH]c(=O)n2C)C(c2ccc(Cl)c(Cl)c2)n2nccc2N1 (some centres undefined)
- IC50 [1]: > 1000 nM
- inhibition [1]: 11%

SMILES: CC1=C(C(=O)N2CCC[C@H]2c2nc(C)no2)C(c2ccc(Cl)c(Cl)c2)n2nccc2N1 (stereo in doubt; 13a) [listing 1 of 2 here]
- inhibition [1]: 22%

SMILES: CC1=C(C(=O)N2CCCC2c2cccnc2)C(c2ccc(Cl)c(Cl)c2)n2nccc2N1 (centres undefined)
- IC50 [1]: > 1000 nM
- inhibition [1]: 35%

SMILES: CC1=C(C(=O)N2CCCC2c2ccc(F)cc2)C(c2ccc(Cl)c(Cl)c2)n2nccc2N1 (mixture of isomers; 7a)
- IC50 [1]: 2100 nM

SMILES: CC1=C(C(=O)N2CCC[C@H]2c2nnc[nH]2)C(c2ccc(Cl)c(Cl)c2)n2nccc2N1 (stereo in doubt; 17a) [listing 2 of 2 here]
- inhibition [1]: 19%

SMILES: CC1=C(C(=O)N2CCC[C@H]2c2nnc[nH]2)C(c2ccc(Cl)c(Cl)c2)n2nccc2N1 (stereo in doubt; 17b)
- inhibition [1]: 3%

SMILES: CC1=C(C(=O)N2CCCC2c2ccncc2)C(c2ccc(Cl)c(Cl)c2)n2nccc2N1 (centres undefined)
- IC50 [1]: 310 nM

SMILES: CC1=C(C(=O)N2CCCC2c2ccc(F)cc2)C(c2ccc(Cl)c(Cl)c2)n2nccc2N1 (mixture of isomers; 7)
- IC50 [1]: 70 nM

SMILES: COC[C@H]1CCCN1C(=O)C1=C(C)Nc2ccnn2C1c1ccc(Cl)c(Cl)c1 (some centres undefined)
- IC50 [1]: > 1000 nM
- inhibition [1]: 32%

SMILES: CC1=C(C(=O)N2CCC[C@H]2c2cc(C)no2)C(c2ccc(Cl)c(Cl)c2)n2nccc2N1 (stereo in doubt; 20a) [listing 2 of 2 here]
- IC50 [1]: > 1000 nM

SMILES: CC1=C(C(=O)N2CCC[C@H]2c2nc(C)no2)C(c2ccc(Cl)c(Cl)c2)n2nccc2N1 (stereo in doubt; 13a) [listing 2 of 2 here]
- IC50 [1]: > 1000 nM

SMILES: CC1=C(C(=O)N2CCC[C@H]2c2nnn[nH]2)C(c2ccc(Cl)c(Cl)c2)n2nccc2N1 (stereo in doubt; 14a) [listing 2 of 2 here]
- IC50 [1]: > 1000 nM

SMILES: CC1=C(C(=O)N2CCCC2c2ccc(F)cc2)C(c2ccc(Cl)c(Cl)c2)n2nccc2N1 (mixture of isomers; 7b)
- IC50 [1]: 1800 nM
